Measured values: patent publication US10301280B2 (Plexxikon Inc., priority 2012, dated 2019)

Key:
c-kit mutant D816V = c-kit mutant D816V (Homo sapiens (Human), UniProt P10721, D816V/DEL694-753); experiment: c-Kit mutant D816V biochemical assay (AlphaScreen); details: c-kit D816V biochemical inhibitory activity
How it was run: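 His-tagged c-Kit D816V kinase domain (551-934, Δ694-753, E. coli) phosphorylating 30 nM biotin-(E4Y)10 at 10 μM ATP in HEPES pH 7.2 with Mg/Mn, 5% DMSO, 30 min at room temperature. PY20-acceptor/streptavidin-donor AlphaScreen detection after EDTA stop. IC50 from 8-point 1:3 titration.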

c-kit kinase = c-kit kinase (Homo sapiens (Human), UniProt P10721); experiment: c-Kit biochemical assay (AlphaScreen); details: c-kit biochemical inhibitory activity
Method: Assays for biochemical cell-based activity of c-kit kinase are known in the art, for example, as described in U.S. Pat. Nos. 7,498,342 and 7,846,941, the disclosures of which are hereby incorporated by reference as it relates to such assays. The c-kit (or kinase domain thereof) is an active kinase in AlphaScreen. IC50 values are determined with respect to inhibition of c-Kit kinase activity, where inhibition of phosphorylation of a peptide substrate is measured as a function of compound concentration. Compounds to be tested were dissolved in DMSO to a concentration of 20 mM. These were diluted 30 μl into 120 μl of DMSO (4 mM) and 1 μl was added to an assay plate. These were then serially diluted 1:3 (50 μl to 100 μl DMSO) for a total of 8 points. Plates were prepared such that each kinase reaction is 20 μl in 1× kinase buffer (50 mM HEPES, pH 7.2, 5 mM MgCl2, 5 mM MnCl2, 0.01% NP-40, 0.2% BSA), 5% DMSO and 10 µM ATP. Substrate was 100 nM biotin-(E4Y)3 (Open Source Biotech, Inc.). C-kit kinase was at 0.1 ng per sample. After incubation of the kinase reaction for 1 hour at room temperature, 5 μl of donor beads (Streptavidin coated beads (Perkin Elmer Life Science) final concentration 1 μg/ml) in stop buffer (50 mM EDTA in 1× kinase buffer) was added, the sample was mixed and incubated for 20 minutes at room temperature before adding 5 μl of acceptor beads (PY20 coated beads (Perkin Elmer Life Science) final concentration 1 μg/ml) in stop buffer. The samples were incubated for 60 minutes at room temperature and the signal per well was read on AlphaQuest reader. Phosphorylated substrate results in binding of the PY20 antibody and association of the donor and acceptor beads such that signal correlates with kinase activity. The signal vs. compound concentration was used to determine the IC50.
Compounds were also tested using a similar assay with a 10-fold higher ATP concentration. For these samples, compounds to be tested were dissolved in DMSO to a concentration of 20 mM. These were diluted 30 μl into 120 μl of DMSO (4 mM) and 1 μl was added to an assay plate. These were then serially diluted 1:3 (50 μl to 100 μl DMSO) for a total of 8 points. Plates were prepared such that each kinase reaction is 20 μl in 1× kinase buffer (25 mM HEPES, pH 7.5, 2 mM MgCl2, 2 mM MnCl2, 0.01% Tween-20, 1 mM DTT, and 0.001% BSA), 5% DMSO and 100 µM ATP. Substrate was 30 nM biotin-(E4Y)10 (Upstate Biotech, Cat#12-440). C-kit kinase was at 1 ng per sample. After incubation of the kinase reaction for 1 hour at room temperature, 5 μl of donor beads (Streptavidin coated beads (Perkin Elmer Life Science) final concentration 10 μg/ml) in stop buffer (25 mM HEPES pH 7.5, 100 mM EDTA, 0.3% BSA) was added, the sample was mixed and incubated for 20 minutes at room temperature before adding 5 μl of acceptor beads (PY20 coated beads (Perkin Elmer Life Science) final concentration 10 μg/ml) in stop buffer. The samples were incubated for 60 minutes at room temperature and the signal per well was read on AlphaQuest or Envision reader (Perkin Elmer Life Science). Phosphorylated substrate results in binding of the PY20 antibody and association of the donor and acceptor beads such that signal correlates with kinase activity. The signal vs. compound concentration was used to determine the IC50.
The c-kit enzyme used in the above assay was either obtained from Cell Signaling Technology (Cat. #7754) or was prepared as follows: A plasmid encoding kit (DNA and encoded protein sequences shown below) was engineered using common polymerase chain reaction (PCR) methods. Complementary DNA cloned from various human tissues were purchased from Invitrogen, and these were used as substrates in the PCR reactions. Specific custom synthetic oligonucleotide primers were designed to initiate the PCR product, and also to provide the appropriate restriction enzyme cleavage sites for ligation with the plasmids. […]

[1] = test system: BaF3-FL KIT D816V or BaF3-FL KIT V560G/D816V cell line; experiment: Cell-based assays of c-Kit mutant kinase activity (cell growth, ATPlite); details: at least one of the c-kit cell assays of Example 26
How it was run: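 IC50 derived from ATP-content luminescence (ATPlite) after three-day compound exposure at 37° C., 5% CO2. Cells: BaF3 rendered growth-dependent on full-length human KIT D816V or V560G/D816V, 1×10^4 per well, RPMI plus 10% FBS; 8 points, 1:3 steps, maximum 10 μM final, 0.2% DMSO.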

c-kit kinase, sequence (P10721 26-976): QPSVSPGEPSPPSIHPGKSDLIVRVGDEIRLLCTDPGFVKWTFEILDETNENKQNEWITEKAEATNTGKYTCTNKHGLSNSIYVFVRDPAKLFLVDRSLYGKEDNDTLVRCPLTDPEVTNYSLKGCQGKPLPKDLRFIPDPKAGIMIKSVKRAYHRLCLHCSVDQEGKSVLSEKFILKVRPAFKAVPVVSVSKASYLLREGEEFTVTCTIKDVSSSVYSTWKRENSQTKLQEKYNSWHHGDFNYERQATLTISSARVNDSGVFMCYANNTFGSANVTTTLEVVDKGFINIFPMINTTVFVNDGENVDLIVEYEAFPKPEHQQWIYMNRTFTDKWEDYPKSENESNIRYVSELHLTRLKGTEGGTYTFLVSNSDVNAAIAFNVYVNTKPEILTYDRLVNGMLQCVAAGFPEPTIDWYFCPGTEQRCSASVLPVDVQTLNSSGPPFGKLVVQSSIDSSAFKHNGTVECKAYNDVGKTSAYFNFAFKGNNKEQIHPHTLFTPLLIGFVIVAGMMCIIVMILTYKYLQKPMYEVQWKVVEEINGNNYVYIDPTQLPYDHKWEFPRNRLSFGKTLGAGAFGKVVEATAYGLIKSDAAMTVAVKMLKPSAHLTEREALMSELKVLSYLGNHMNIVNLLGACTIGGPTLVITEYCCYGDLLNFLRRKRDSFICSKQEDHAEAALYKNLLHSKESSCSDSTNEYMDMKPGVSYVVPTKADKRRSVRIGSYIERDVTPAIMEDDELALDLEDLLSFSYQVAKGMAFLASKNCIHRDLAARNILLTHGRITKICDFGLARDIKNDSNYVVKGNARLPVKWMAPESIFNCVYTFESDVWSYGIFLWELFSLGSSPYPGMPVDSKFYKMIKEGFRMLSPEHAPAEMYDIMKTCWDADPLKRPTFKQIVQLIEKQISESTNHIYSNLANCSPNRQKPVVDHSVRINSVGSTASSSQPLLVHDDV
c-kit mutant D816V, sequence (P10721 other isoform, or with tags, fused parts or gaps D816V/del 694-753): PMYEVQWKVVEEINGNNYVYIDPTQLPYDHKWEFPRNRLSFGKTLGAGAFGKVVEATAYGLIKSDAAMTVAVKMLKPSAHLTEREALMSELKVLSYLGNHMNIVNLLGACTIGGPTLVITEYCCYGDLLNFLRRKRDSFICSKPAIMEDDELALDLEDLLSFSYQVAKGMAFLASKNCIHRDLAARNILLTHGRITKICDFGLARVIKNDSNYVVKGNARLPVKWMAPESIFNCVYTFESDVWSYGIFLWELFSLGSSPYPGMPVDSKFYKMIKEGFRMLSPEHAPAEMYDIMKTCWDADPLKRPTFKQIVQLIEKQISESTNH

O=C(Nc1cnc2[nH]c(-c3ccccc3)cc2c1)c1n[nH]c2ccc(F)cc12 [P-2010, 5-fluoro-N-(2-phenyl-1H-pyrrolo[2,3-b]pyridin-5-yl)-1H-indazole-3-carboxamide]
IC50 (c-kit mutant D816V): 10 to 200 µM
IC50 (c-kit kinase): 10 to 200 µM

NC(=O)c1cccc(C(=O)Nc2cnc3[nH]c(-c4ccc(F)cc4)cc3c2)c1 [P-2020, N3-[2-(4-fluorophenyl)-1H-pyrrolo[2,3-b]pyridin-5-yl]benzene-1,3-dicarboxamide]
IC50 [1]: < 10 µM
IC50 (c-kit kinase): 1 to 10 µM

Cc1n[nH]c(C(=O)Nc2cnc3[nH]c(-c4ccc(F)c(C)c4C)cc3c2)c1C [P-2279, N-[2-(4-fluoro-2,3-dimethyl-phenyl)-1H-pyrrolo[2,3-b]pyridin-5-yl]-3,4-dimethyl-1H-pyrazole-5-carboxamide]
IC50 [1]: < 10 µM
IC50 (c-kit kinase): 10 to 200 µM

Cc1cc2cc(NC(=O)c3cccc4n[nH]cc34)cnc2[nH]1 [P-2301, N-(2-methyl-1H-pyrrolo[2,3-b]pyridin-5-yl)-2H-indazole-4-carboxamide]
IC50 [1]: < 10 µM
IC50 (c-kit kinase): 10 to 200 µM

O=S(=O)(Nc1cnc2[nH]c(-c3ccccc3)cc2c1)c1cn[nH]c1 [P-2018]
IC50 (c-kit mutant D816V): 10 to 200 µM
IC50 (c-kit kinase): 10 to 200 µM
